Reference: ChEMBL document CHEMBL1212706, “A potent mechanism-inspired O-GlcNAcase inhibitor that blocks phosphorylation of tau in vivo” (Nat Chem Biol, 2008)
Activity calls are given as the source filed them. No cut-off for these calls is given here.

Columns and labels:
[1] = target: T1, Beta-hexosaminidase (Vibrio cholerae serotype O1 (strain ATCC 39315 / El Tor Inaba N16961)) (UniProt Q9KU37); assay: Inhibition of Vibrio cholerae glycoside hydrolase NagZ
T1 sequence (whole entry): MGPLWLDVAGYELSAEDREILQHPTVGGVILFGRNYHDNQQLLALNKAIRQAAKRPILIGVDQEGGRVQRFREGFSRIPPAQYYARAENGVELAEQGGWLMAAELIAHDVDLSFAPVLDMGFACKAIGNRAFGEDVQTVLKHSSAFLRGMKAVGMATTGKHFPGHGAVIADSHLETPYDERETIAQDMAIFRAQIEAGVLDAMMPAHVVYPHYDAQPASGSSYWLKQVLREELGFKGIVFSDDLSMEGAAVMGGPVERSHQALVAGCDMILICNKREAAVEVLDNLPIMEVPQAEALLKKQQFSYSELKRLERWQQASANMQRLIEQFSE

Saccharomyces cerevisiae = assay: Inhibition of Saccharomyces cerevisiae alpha-glucosidase
Rattus norvegicus [2] = assay: Increase in O-GlcNAc immunoreactivity in Sprague-Dawley rat brain perikaryon at 200 mg/kg, po by […]; assay type: functional, organism-based; set-up: dose 200 mg/kg
PC-12 [3] = assay: Induction of O-GlcNAc level in NGF-differentiated rat PC12 cells at >25 uM by Western blot analysis; assay type: functional, cell-based; settings: TDE = time-dependent effect
PC-12 [4] = assay: Reduction in tau protein phosphorylation at Ser396 position in NGF-differentiated rat PC12 cells after 4 hrs by Western blot analysis relative to control; assay type: functional, cell-based
Rattus norvegicus [5] = assay: Increase in O-GlcNAc immunoreactivity in Sprague-Dawley rat brain CA1 region at 200 mg/kg, po by […]; assay type: functional, organism-based; set-up: dose 200 mg/kg
Rattus norvegicus [6] = assay: Decrease in pSer396 immunoreactivity in Sprague-Dawley rat brain pyramidal cell layer of CA1 region at 200 mg/kg, po by […]; assay type: functional, organism-based; set-up: dose 200 mg/kg
[7] = Inhibition of beta-hexosaminidase
PC-12 [8] = assay: Induction of O-GlcNAc level in NGF-differentiated rat PC12 cells after 24 hrs by densitometric analysis; assay type: functional, cell-based; settings: PC-12, 24 h
Rattus norvegicus [9] = assay: Reduction in tau protein phosphorylation at Thr231 in Sprague-Dawley rat brain CA1 region at 200 mg/kg, po by […]; assay type: functional, organism-based; set-up: dose 200 mg/kg
Rattus norvegicus [10] = assay: Decrease in pSer396 immunoreactivity in Sprague-Dawley rat brain epitops of CA1 region at 200 mg/kg, po by […]; assay type: functional, organism-based; set-up: dose 200 mg/kg
[11] = Inhibition of human lysosomal beta-hexosaminidase
[12] = target: Beta-galactosidase (Kluyveromyces lactis) (UniProt P00723); assay: Inhibition of Kluyveromyces lactis glycoside hydrolase beta-galactosidase
PC-12 [13] = assay: […] in pSer396 immunoreactivity in NGF-differentiated rat PC12 cells after 4 hrs by Western blot analysis; assay type: functional, cell-based; settings: TDE = time-dependent effect
Rattus norvegicus [14] = assay: Decrease in pThr231 immunoreactivity in Sprague-Dawley rat brain epitops of CA1 region at 200 mg/kg, po by […]; assay type: functional, organism-based; set-up: dose 200 mg/kg
[15] = target: T2, Alpha-galactosidase (Thermotoga maritima) (UniProt G4FEF4); assay: Inhibition of Thermotoga maritima alpha-galactosidase
T2 sequence (whole entry): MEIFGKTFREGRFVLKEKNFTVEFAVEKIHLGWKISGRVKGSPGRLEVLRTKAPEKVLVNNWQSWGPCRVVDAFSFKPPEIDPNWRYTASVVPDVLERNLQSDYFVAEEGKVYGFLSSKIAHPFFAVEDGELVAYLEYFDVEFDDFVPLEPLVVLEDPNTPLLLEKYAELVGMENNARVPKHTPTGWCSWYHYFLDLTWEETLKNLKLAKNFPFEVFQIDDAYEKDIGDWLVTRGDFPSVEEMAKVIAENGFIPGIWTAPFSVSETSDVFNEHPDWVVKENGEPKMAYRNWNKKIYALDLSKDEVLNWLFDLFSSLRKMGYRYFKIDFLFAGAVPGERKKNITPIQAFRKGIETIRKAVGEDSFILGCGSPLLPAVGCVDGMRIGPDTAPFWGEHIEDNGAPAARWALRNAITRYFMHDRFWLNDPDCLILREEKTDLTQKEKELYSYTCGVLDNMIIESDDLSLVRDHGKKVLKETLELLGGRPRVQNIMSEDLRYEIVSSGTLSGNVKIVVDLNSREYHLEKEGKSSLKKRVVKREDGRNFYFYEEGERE

Canavalia ensiformis = assay: Inhibition of Canavalia ensiformis alpha-mannosidase
PC-12 [16] = assay: Induction of O-GlcNAc level in NGF-differentiated rat PC12 cells after 24 hrs by Western blot analysis; assay type: functional, cell-based
Rattus norvegicus [17] = assay: Reduction in tau protein phosphorylation at Ser396 in Sprague-Dawley rat brain CA1 region at 200 mg/kg, po by […]; assay type: functional, organism-based; set-up: dose 200 mg/kg
Rattus norvegicus [18] = assay: Increase in O-GlcNAc immunoreactivity in Sprague-Dawley rat brain nucleus at 200 mg/kg, po by […]; assay type: functional, organism-based; set-up: dose 200 mg/kg
Rattus norvegicus [19] = assay: Decrease in pThr231 immunoreactivity in Sprague-Dawley rat brain pyramidal cell layer of CA1 region at 200 mg/kg, po by […]; assay type: functional, organism-based; set-up: dose 200 mg/kg
Rattus norvegicus [20] = assay: Induction of O-GlcNAc level in rat at 50 mg/kg, iv by Western blot analysis; assay type: functional, organism-based; set-up: dose 50 mg/kg; settings: TDE = time-dependent effect
Rattus norvegicus [21] = assay: Increase in O-GlcNAc level in Sprague-Dawley rat brain pyramidal cell layer of CA1 region at 200 mg/kg, po by […]; assay type: functional, organism-based; set-up: dose 200 mg/kg
Protein O-GlcNAcase = target: T3, Protein O-GlcNAcase (Homo sapiens, UniProt O60502); assay: Inhibition of human O-GlcNAcase
T3 sequence (O60502 whole entry): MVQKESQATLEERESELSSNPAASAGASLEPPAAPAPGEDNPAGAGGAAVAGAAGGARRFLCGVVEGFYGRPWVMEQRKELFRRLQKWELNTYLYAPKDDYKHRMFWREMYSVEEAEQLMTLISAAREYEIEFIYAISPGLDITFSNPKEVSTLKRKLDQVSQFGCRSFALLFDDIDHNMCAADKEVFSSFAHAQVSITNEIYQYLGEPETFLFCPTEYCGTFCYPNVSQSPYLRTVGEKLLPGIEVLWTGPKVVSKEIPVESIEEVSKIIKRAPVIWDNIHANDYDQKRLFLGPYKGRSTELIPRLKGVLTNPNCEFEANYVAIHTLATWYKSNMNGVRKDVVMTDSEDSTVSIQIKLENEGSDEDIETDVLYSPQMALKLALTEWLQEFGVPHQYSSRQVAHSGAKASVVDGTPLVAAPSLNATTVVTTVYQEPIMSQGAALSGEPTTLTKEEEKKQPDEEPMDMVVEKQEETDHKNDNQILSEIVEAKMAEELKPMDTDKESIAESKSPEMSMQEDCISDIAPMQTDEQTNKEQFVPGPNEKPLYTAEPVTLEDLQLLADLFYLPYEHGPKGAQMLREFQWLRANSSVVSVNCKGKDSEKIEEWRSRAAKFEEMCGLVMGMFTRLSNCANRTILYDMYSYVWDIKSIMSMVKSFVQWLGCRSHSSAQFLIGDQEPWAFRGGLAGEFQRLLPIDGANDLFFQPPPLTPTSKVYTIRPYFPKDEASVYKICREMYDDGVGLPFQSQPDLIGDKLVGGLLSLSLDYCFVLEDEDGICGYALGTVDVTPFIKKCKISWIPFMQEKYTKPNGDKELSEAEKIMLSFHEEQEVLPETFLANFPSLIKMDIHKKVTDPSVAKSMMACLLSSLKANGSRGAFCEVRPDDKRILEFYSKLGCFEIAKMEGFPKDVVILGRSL

Homo sapiens = organism: Homo sapiens; assay: Selectivity for human O-GlcNAcase over human lysosomal beta-hexosaminidase

Beta-galactosidase (Kluyveromyces lactis), sequence (P00723 whole entry): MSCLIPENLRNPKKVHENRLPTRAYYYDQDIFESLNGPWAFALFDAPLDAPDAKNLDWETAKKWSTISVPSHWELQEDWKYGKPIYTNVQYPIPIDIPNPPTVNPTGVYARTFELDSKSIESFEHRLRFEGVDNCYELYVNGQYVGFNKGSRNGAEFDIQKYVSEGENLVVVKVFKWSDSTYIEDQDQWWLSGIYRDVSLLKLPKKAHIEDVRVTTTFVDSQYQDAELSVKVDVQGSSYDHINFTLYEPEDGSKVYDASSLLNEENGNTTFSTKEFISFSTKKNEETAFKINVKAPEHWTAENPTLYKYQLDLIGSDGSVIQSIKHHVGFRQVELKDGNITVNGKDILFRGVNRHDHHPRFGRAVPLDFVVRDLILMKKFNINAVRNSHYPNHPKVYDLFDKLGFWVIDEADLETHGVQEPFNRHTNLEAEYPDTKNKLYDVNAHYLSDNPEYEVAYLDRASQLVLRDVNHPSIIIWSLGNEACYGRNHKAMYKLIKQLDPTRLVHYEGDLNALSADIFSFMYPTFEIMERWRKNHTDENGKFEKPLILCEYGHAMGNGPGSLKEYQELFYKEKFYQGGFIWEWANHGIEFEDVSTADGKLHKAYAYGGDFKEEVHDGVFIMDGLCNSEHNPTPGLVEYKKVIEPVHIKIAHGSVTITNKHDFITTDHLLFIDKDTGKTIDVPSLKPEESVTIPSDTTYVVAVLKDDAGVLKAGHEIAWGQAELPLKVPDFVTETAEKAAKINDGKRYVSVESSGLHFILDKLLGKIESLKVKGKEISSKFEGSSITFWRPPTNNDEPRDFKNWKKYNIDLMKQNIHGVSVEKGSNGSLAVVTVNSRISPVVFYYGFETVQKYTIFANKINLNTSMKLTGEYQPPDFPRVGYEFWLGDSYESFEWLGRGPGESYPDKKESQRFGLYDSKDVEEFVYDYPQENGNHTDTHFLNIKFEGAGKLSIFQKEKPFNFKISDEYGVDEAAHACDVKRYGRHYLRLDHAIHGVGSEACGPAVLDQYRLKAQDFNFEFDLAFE

## CCNC1=N[C@@H]2[C@@H](O)[C@H](O)[C@@H](CO)O[C@@H]2S1
[1]
  inhibition: inactive
Saccharomyces cerevisiae
  inhibition: inactive
Rattus norvegicus [2]
  Activity: Active
PC-12 [3]
  Activity: tde
PC-12 [4]
  Activity: Dose-dependent effect
Rattus norvegicus [5]
  Activity: Active
Rattus norvegicus [6]
  Activity: Active
[7]
  inhibition: inactive
PC-12 [8]
  EC50: 30 nM
Rattus norvegicus [9]
  Activity: Active
Rattus norvegicus [10]
  Activity: Active
[11]
  Ki: 750000 nM
[12]
  inhibition: inactive
PC-12 [13]
  Activity: tde
Rattus norvegicus [14]
  Activity: Active
[15]
  inhibition: inactive
Canavalia ensiformis
  inhibition: inactive
PC-12 [16]
  Activity: Dose-dependent effect
Rattus norvegicus [17]
  Activity: Active
Rattus norvegicus [18]
  Activity: Active
Rattus norvegicus [19]
  Activity: Active
Rattus norvegicus [20]
  Activity: tde
Rattus norvegicus [21]
  Activity: Active

## CC(=O)N[C@H]1c2nc(CC(=O)O)cn2[C@H](CO)[C@@H](O)[C@@H]1O
Protein O-GlcNAcase
  Ki: 420 nM

## CCCC1=N[C@@H]2[C@@H](O)[C@H](O)[C@@H](CO)O[C@@H]2S1
Homo sapiens
  fold change (FC): 800
Protein O-GlcNAcase
  Ki: 600 nM
